Data on ten compounds can be found in US20100056477A1, “FUNGICIDAL MIXTURES OF AMIDINYLPHENYL COMPOUNDS” (Bayer CropScience AG, priority 2006, published 2010).

For one data set, the system named is Leptosphaeria nodorum. The experiment in a line: Leptosphaeria nodorum test (wheat)/protective. Type of data set: in vivo. The note with it: single active compound, 125 ppm, protective, evaluated 10 days after inoculation. The protocol: (§1) Solvent: 50 parts by weight of n,n-dimethylacetamid
(§2) Emulsifier: 1 part by weight of alkylaryl polyglycol ether
(§3) To produce a suitable preparation of active compound, 1 part by weight of active compound or active compound combination is mixed with the stated amounts of solvent and emulsifier, and the concentrate is diluted with water to the desired concentration.
To test for protective activity, young plants are sprayed with a preparation of active compound or active compound combination at the stated rate of application. After the spray coating has been dried, the plants are sprayed with a spore suspension of Leptosphaeria nodorum. The plants remain for 48 hours in an incubation cabinet at 20° C. and a relative atmospheric humidity of 100%.
(§4) The plants are placed in a greenhouse at a temperature of approximately 15° C. and a relative atmospheric humidity of approximately 80%.
The test is evaluated 10 days after the inoculation. 0% means an efficacy which corresponds to that of the control, while an efficacy of 100% means that no disease is observed.

A further data set deals with Botrytis cinerea. The experiment in a line: Botrytis test (beans)/protective. Type of data set: in vivo. The note with it: single active compound, protective, evaluated 2 days after inoculation. The protocol:
Solvent: 24.5 parts by weight of acetone • 24.5 parts by weight of dimethylacetamide
as §2
To produce a suitable preparation of active compound, 1 part by weight of active compound is mixed with the stated amounts of solvent and emulsifier, and the concentrate is diluted with water to the desired concentration.
To test for protective activity, young plants are sprayed with the preparation of active compound. After the spray coating has dried on, 2 small pieces of agar covered with growth of Botrytis cinerea are placed on each leaf. The inoculated plants are placed in a darkened chamber at 20° C. and a relative atmospheric humidity of 100%.
2 days after the inoculation, the size of the lesions on the leaves is evaluated. 0% means an efficacy which corresponds to that of the control, while an efficacy of 100% means that no disease is observed.

The next data set has as its system Septoria tritici. The experiment in a line: Septoria tritici test (wheat)/protective. In kind it is in vivo. Particulars: single active compound, rate of application 125 ppm, protective, evaluated 20 days after inoculation. The protocol: as §1, §2, §3
To test the protective activity, young plants are sprayed with a preparation of active compound or active compound combination at the stated rate of application. After the spray coating has been dried, the plants are sprayed with a spore suspension of Septoria tritici. The plants remain for 48 hours at 20° C. and then 60 hours at 15° C. in an incubation cabinet at a relative atmospheric humidity of 100%.
as §4
The test is evaluated 20 days after inoculation. 0% means an efficacy which corresponds to that of the control, while an efficacy of 100% means that no disease is observed.

Broadly, the chromatographic logP is a lipophilicity value derived from retention on a column. Lower therefore signals lower lipophilicity.

With `Cc1cc(Br)c(C=O)cc1[N+](=O)[O-]` [2-bromo-4-methyl-5-nitrobenzaldehyd, 2-bromo-4-methyl-5-nitrobenzaldehyde], in the data set “LogP (HCOOH)” (HCOOH), the chromatographic logP amounted to 2.61.
The compound `Cc1cc(OCCC[Si](C)(C)C)c(C(F)F)cc1N` [5-(difluoromethyl)-2-methyl-4-[3-(trimethylsilyl)propoxy]aniline] returned a chromatographic logP in the data set “LogP (HCOOH)” (HCOOH (formic acid)) of 3.8.
For the compound `CCN(C)/C=N/c1cc(C(F)(F)F)c(OCCC[Si](C)(C)C)cc1C` [(1-37), N-[5-trifluoro-methyl-2-methyl-4-[3-(trimethylsilyl)propoxyl]phenyl]-N-ethyl-N-methyl-methanimidamide], the “Efficacy in % a.e. (actual efficacy)” value in the data set on Leptosphaeria nodorum turned out to be 92%; with Septoria tritici, 30%. Besides, the Efficacy in % in the data set with Botrytis cinerea (10 ppm) came out at 0%; with Botrytis cinerea (100 ppm), 23%.
Regarding `CCN(C)/C=N/c1cc(C(F)F)c(OCCC[Si](C)(C)C)cc1C` [(1-42), N′-{5-(difluoromethyl)-2-methyl-4-[3-(trimethylsilyl)propoxy]phenyl}-N-ethyl-N-methylimidoformamide], the Efficacy in % with Botrytis cinerea (10 ppm) was 0%; in the data set with Botrytis cinerea (100 ppm), 29%. The chromatographic logP in the data set “LogP (HCOOH)” (HCOOH (formic acid)) turned out to be 2.81.
In the data set on Botrytis cinerea (100 ppm), `Cn1cc(C(=O)Nc2ccccc2C2CC2C2CC2)c(C(F)F)n1` (centres unmarked) [(b-1), reference compound] had an Efficacy in % of 38%. Also, in the data set on Septoria tritici, the “Efficacy in % a.e. (actual efficacy)” value is 10%.
Take `Cn1cc(C(=O)Nc2ccccc2-c2ccc(C#CC(C)(C)C)cc2)c(C(F)F)n1` [(b-5), reference compound]: the “Efficacy in % a.e. (actual efficacy)” value in the data set on Leptosphaeria nodorum is 67%. The compound further yielded an Efficacy in % in the data set on Botrytis cinerea (10 ppm) of 80%.
Regarding `CC(C)(C)C#Cc1ccc(-c2ccccc2NC(=O)c2cccnc2Cl)cc1` [(b-7)], in the data set with Leptosphaeria nodorum, the “Efficacy in % a.e. (actual efficacy)” value worked out at 67%.
For `CC(C)[C@@H]1C2CCC1c1c(NC(=O)c3cn(C)nc3C(F)F)cccc12` (some centres unmarked) [(b-17)], the “Efficacy in % a.e. (actual efficacy)” value in the data set on Septoria tritici is 30%.
With `N#Cc1c[nH]cc1-c1cccc2c1OC(F)(F)O2` [(b-19)], the “Efficacy in % a.e. (actual efficacy)” value with Septoria tritici is recorded as 30%.
The compound `Cc1cc(OCCC[Si](C)(C)C)c(C(F)F)cc1[N+](=O)[O-]` [{3-[2-(difluoromethyl)-5-methyl-4-nitrophenoxy]propyl}(trimethyl)silane] returned a chromatographic logP in the data set “LogP (HCOOH)” (HCOOH) of 5.44.
